# Laboratory results from patent EP0565593B1, “REDUCING PESTICIDAL INTERACTIONS IN CROPS” (priority 1990, dated 1992).
# “And” between values parts separate entries of the source, which are not always exact repeats. Equal values may be shown once. Read-outs that look alike come from different tables or passages of the source.
# Key:
# Velvetleaf (VELE) [1] = test: whole plant or invertebrate; format: in vivo, Abutilon theophrasti
# Corn [2] = system: Corn
# Giant foxtail (GIFT) = test: whole plant or invertebrate; format: in vivo
# Shattercane (SHCA) = format: in vivo
# Velvetleaf (VELE) [3] = format: in vivo, Abutilon theophrasti
# Corn [4] = system: Corn; remark: listed apart in the source
# [5] = Table 51, Biocide No. 8 alone 8.96 kg/Ha PPI, observed 13 days after treatment
# [6] = Table 50, Biocide No. 8 alone 8.96 kg/Ha PPI, no herbicide, no antidote
# [7] = […], PPI, 13 days after PPI (Table 31)
# [8] = […], observed 9 days later (Table 29)
# [9] = […], observed 9 days later (Table 30)
# [10] = […], PPI, 14 days after PPI (Table 34)
# [11] = […], observed 8 days later (Table 33)
# [12] = Antidote 4.48 + Biocide No. 1 8.96 Kg/Ha PPI, Herb. No. 8 0.07, 5 DAP, before herbicide application
# [13] = Antidote 4.48 + Biocide No. 1 8.96 Kg/Ha PPI, Herb. No. 8 0.07 POE, 13 DAP
# [14] = Antidote 4.48 + Biocide No. 1 8.96 Kg/Ha PPI, Herbicide No. 7 0.28 POE, 13 days after planting
# [15] = Herb. […], 13 DAP, after herbicide application
# [16] = Table 14: Herbicide No. 7 (ACCENT) 0.84 Kg/Ha POE + Biocide No. 2 8.96 Kg/Ha PPI + antidote 4.48 Kg/Ha PPI, 13 days after planting, 8 days after herbicide
# [17] = […], 13 days after planting, 8 days after herbicide
# [18] = […], observed 10 days after herbicide application
# [19] = Herb. […], 5 DAP, before herbicide application
structure (smiles),measurement,setting,value
"CCCSP(=O)(OCC)SCCC [Biocide No. 8, O-Ethyl-S,S-dipropyl phosphorothioate, reference compound]",% Inhibition VELE,Velvetleaf (VELE) [1]; [5],20%
same,corn injury,"Corn [2]; MOCAP applied alone, PPI, Example 52",significant corn injury
same,% Inhibition Corn,Corn [2]; [5],30%
same,% Inhibition GIFT,Giant foxtail (GIFT); [5],90%
same,% Inhibition SHCA,Shattercane (SHCA); [6],85%
same,% Inhibition VELE,Velvetleaf (VELE) [3]; [6],15%
same,corn injury,"Corn [4]; MOCAP alone at 8.96 kg/ha, Example 51","corn stunting, leaf malformations and stand loss"
same,% Inhibition Corn,Corn [4]; [6],30%
O=C(C(Cl)Cl)N1CCN(C(=O)C(Cl)Cl)CC1 [compound 3],% Inhibition VELE,Velvetleaf (VELE) [1]; [7],95%
same,% Inhibition Corn,Corn [2]; [7],55%
same,% Inhibition GIFT,Giant foxtail (GIFT); [7],75%
same,% Inhibition SHCA,Shattercane (SHCA); [8],70%
same,% Inhibition SHCA,Shattercane (SHCA); [9],40%
same,% Inhibition VELE,Velvetleaf (VELE) [3]; [8],95%
same,% Inhibition VELE,Velvetleaf (VELE) [3]; [9],70%
same,% Inhibition Corn,Corn [4]; [8],35%
same,% Inhibition Corn,Corn [4]; [9],60%
O=C(C(Cl)Cl)N1CCCC12CCCC2 [compound 19],% Inhibition VELE,Velvetleaf (VELE) [1]; [7],80%
same,% Inhibition VELE,Velvetleaf (VELE) [1]; [10],90%
same,% Inhibition Corn,Corn [2]; [7],55%
same,% Inhibition Corn,Corn [2]; [10],35%
same,% Inhibition GIFT,Giant foxtail (GIFT); [7],75%
same,% Inhibition GIFT,Giant foxtail (GIFT); [10],65%
same,% Inhibition SHCA,Shattercane (SHCA); [11],30%
same,% Inhibition SHCA,Shattercane (SHCA); [8],80%
same,% Inhibition SHCA,Shattercane (SHCA); [9],30%
same,% Inhibition VELE,Velvetleaf (VELE) [3]; [11],70%
same,% Inhibition VELE,Velvetleaf (VELE) [3]; [8],95%
same,% Inhibition VELE,Velvetleaf (VELE) [3]; [9],70%
same,% Inhibition Corn,Corn [4]; [11],55%
same,% Inhibition Corn,Corn [4]; [8],20%
same,% Inhibition Corn,Corn [4]; [9],35%
CC1(C)OC(c2cccs2)CN1C(=O)C(Cl)Cl (centres unmarked) [compound 22],% Inhibition VELE,Velvetleaf (VELE) [1]; [7],80%
same,% Inhibition Corn,Corn [2]; [7],45%
same,% Inhibition GIFT,Giant foxtail (GIFT); [7],70%
same,% Inhibition SHCA,Shattercane (SHCA); [8],65%
same,% Inhibition SHCA,Shattercane (SHCA); [9],25%
same,% Inhibition VELE,Velvetleaf (VELE) [3]; [8],85%
same,% Inhibition VELE,Velvetleaf (VELE) [3]; [9],75%
same,% Inhibition Corn,Corn [4]; [8],20%
same,% Inhibition Corn,Corn [4]; [9],40%
CC1Cc2ccccc2C(C)N1C(=O)C(Cl)Cl (centres unmarked) [compound 26],% Inhibition VELE,Velvetleaf (VELE) [1]; [7],80%
same,% Inhibition Corn,Corn [2]; [7],65%
same,% Inhibition GIFT,Giant foxtail (GIFT); [7],75%
same,% Inhibition SHCA,Shattercane (SHCA); [8],70%
same,% Inhibition SHCA,Shattercane (SHCA); [9],35%
same,% Inhibition VELE,Velvetleaf (VELE) [3]; [8],90%
same,% Inhibition VELE,Velvetleaf (VELE) [3]; [9],75%
same,% Inhibition Corn,Corn [4]; [8],40%
same,% Inhibition Corn,Corn [4]; [9],50%
CC1(C)OC(c2cccnc2)CN1C(=O)C(Cl)Cl (centres unmarked) [compound 27],% Inhibition VELE,Velvetleaf (VELE) [1]; [7],85%
same,% Inhibition Corn,Corn [2]; [7],30%
same,% Inhibition GIFT,Giant foxtail (GIFT); [7],75%
same,% Inhibition SHCA,Shattercane (SHCA); [8],75%
same,% Inhibition SHCA,Shattercane (SHCA); [9],30%
same,% Inhibition VELE,Velvetleaf (VELE) [3]; [8],85%
same,% Inhibition VELE,Velvetleaf (VELE) [3]; [9],75%
same,% Inhibition Corn,Corn [4]; [8],25%
same,% Inhibition Corn,Corn [4]; [9],30%
CCOC(=O)c1cnoc1-c1ccc(Cl)cc1Cl [compound 30],% Inhibition VELE,Velvetleaf (VELE) [1]; in vivo,90% and 95% and 100%
same,% Inhibition GIFT,Giant foxtail (GIFT); in vivo,65% and 80% and 90% and 75% and 95%
same,% Inhibition 5 DAP SHCA,Shattercane (SHCA); [12],50%
same,% Inhibition 13 DAP SHCA,Shattercane (SHCA); [13],75%
same,% Inhibition SHCA,Shattercane (SHCA); [14],85%
same,% Inhibition 13 DAP SHCA,Shattercane (SHCA); [15],95%
same,% Inhibition SHCA,Shattercane (SHCA); [16],90%
same,% Inhibition SHCA,Shattercane (SHCA); [17],90%
same,% Inhibition SHCA,Shattercane (SHCA); [18],70%
same,% Inhibition 5 DAP SHCA,Shattercane (SHCA); in vivo,25%
same,% Inhibition 13 DAP SHCA,Shattercane (SHCA); in vivo,95%
same,% Inhibition SHCA,Shattercane (SHCA); in vivo,90% and 60% and 70%
same,% Inhibition 5 DAP VELE,Velvetleaf (VELE) [3]; [12],75%
same,% Inhibition 13 DAP VELE,Velvetleaf (VELE) [3]; [13],95%
same,% Inhibition VELE,Velvetleaf (VELE) [3]; [14],95%
same,% Inhibition 5 DAP VELE,Velvetleaf (VELE) [3]; [19],90%
same,% Inhibition 13 DAP VELE,Velvetleaf (VELE) [3]; [15],95%
same,% Inhibition VELE,Velvetleaf (VELE) [3]; [16],100%
same,% Inhibition VELE,Velvetleaf (VELE) [3]; [17],100%
same,% Inhibition VELE,Velvetleaf (VELE) [3]; [18],95%
same,% Inhibition 5 DAP VELE,Velvetleaf (VELE) [3]; in vivo,80%
same,% Inhibition 13 DAP VELE,Velvetleaf (VELE) [3]; in vivo,95%
same,% Inhibition 5 DAP Corn,Corn [4]; [12],10%
same,% Inhibition 13 DAP Corn,Corn [4]; [13],50%
same,% Inhibition Corn,Corn [4]; [14],55%
same,% Inhibition 5 DAP Corn,Corn [4]; [19],0%
same,% Inhibition Corn,Corn [4]; [16],30%
same,% Inhibition Corn,Corn [4]; [17],25%
same,% Inhibition Corn,Corn [4]; [18],70%
same,% Inhibition 5 DAP Corn,Corn [4]; in vivo,10%
same,% Inhibition 13 DAP Corn,Corn [4]; in vivo,56%
same,% Inhibition Corn,Corn [4]; in vivo,50% and 35% and 40%
same,effect on corn before application of the herbicide,Corn [4]; in vivo,Some injury
CC1(C)OC(Cc2ccccc2)CN1C(=O)C(Cl)Cl (centres unmarked) [compound 34],% Inhibition VELE,Velvetleaf (VELE) [1]; [7],80%
same,% Inhibition Corn,Corn [2]; [7],35%
same,% Inhibition GIFT,Giant foxtail (GIFT); [7],75%
same,% Inhibition SHCA,Shattercane (SHCA); [8],70%
same,% Inhibition SHCA,Shattercane (SHCA); [9],25%
same,% Inhibition VELE,Velvetleaf (VELE) [3]; [8],85%
same,% Inhibition VELE,Velvetleaf (VELE) [3]; [9],70%
same,% Inhibition Corn,Corn [4]; [8],15%
same,% Inhibition Corn,Corn [4]; [9],35%
Cn1cccc1C1CN(C(=O)C(Cl)Cl)C(C)(C)O1 (centres unmarked) [compound 35],% Inhibition VELE,Velvetleaf (VELE) [1]; [7],80%
same,% Inhibition Corn,Corn [2]; [7],40%
same,% Inhibition GIFT,Giant foxtail (GIFT); [7],70%
same,% Inhibition SHCA,Shattercane (SHCA); [8],75%
same,% Inhibition SHCA,Shattercane (SHCA); [9],30%
same,% Inhibition VELE,Velvetleaf (VELE) [3]; [8],90%
same,% Inhibition VELE,Velvetleaf (VELE) [3]; [9],65%
same,% Inhibition Corn,Corn [4]; [8],20%
same,% Inhibition Corn,Corn [4]; [9],35%
O=C(C(Cl)Cl)N1CC(c2ccco2)OC1c1ccccc1 (centres unmarked) [compound 36],% Inhibition VELE,Velvetleaf (VELE) [1]; [7],90%
same,% Inhibition Corn,Corn [2]; [7],60%
same,% Inhibition GIFT,Giant foxtail (GIFT); [7],75%
same,% Inhibition SHCA,Shattercane (SHCA); [8],75%
same,% Inhibition SHCA,Shattercane (SHCA); [9],35%
same,% Inhibition VELE,Velvetleaf (VELE) [3]; [8],100%
same,% Inhibition VELE,Velvetleaf (VELE) [3]; [9],80%
same,% Inhibition Corn,Corn [4]; [8],45%
same,% Inhibition Corn,Corn [4]; [9],45%
C[n+]1cccc(C2CN(C(=O)C(Cl)Cl)C(C)(C)O2)c1 (centres unmarked) [compound 37],% Inhibition VELE,Velvetleaf (VELE) [1]; [7],85%
same,% Inhibition Corn,Corn [2]; [7],60%
same,% Inhibition GIFT,Giant foxtail (GIFT); [7],80%
same,% Inhibition SHCA,Shattercane (SHCA); [8],80%
same,% Inhibition SHCA,Shattercane (SHCA); [9],35%
same,% Inhibition VELE,Velvetleaf (VELE) [3]; [8],90%
same,% Inhibition VELE,Velvetleaf (VELE) [3]; [9],75%
same,% Inhibition Corn,Corn [4]; [8],65%
same,% Inhibition Corn,Corn [4]; [9],50%
CC1(C)OC(c2cc3ccccc3o2)CN1C(=O)C(Cl)Cl (centres unmarked) [compound 38],% Inhibition VELE,Velvetleaf (VELE) [1]; [7],85%
same,% Inhibition Corn,Corn [2]; [7],50%
same,% Inhibition GIFT,Giant foxtail (GIFT); [7],70%
same,% Inhibition SHCA,Shattercane (SHCA); [8],80%
same,% Inhibition SHCA,Shattercane (SHCA); [9],25%
same,% Inhibition VELE,Velvetleaf (VELE) [3]; [8],95%
same,% Inhibition VELE,Velvetleaf (VELE) [3]; [9],70%
same,% Inhibition Corn,Corn [4]; [8],20%
same,% Inhibition Corn,Corn [4]; [9],45%
CCC1c2ccccc2CCN1C(=O)C(Cl)Cl (centres unmarked) [compound 39],% Inhibition VELE,Velvetleaf (VELE) [1]; [7],95%
same,% Inhibition Corn,Corn [2]; [7],50%
same,% Inhibition GIFT,Giant foxtail (GIFT); [7],85%
same,% Inhibition SHCA,Shattercane (SHCA); [8],75%
same,% Inhibition SHCA,Shattercane (SHCA); [9],40%
same,% Inhibition VELE,Velvetleaf (VELE) [3]; [8],90%
same,% Inhibition VELE,Velvetleaf (VELE) [3]; [9],80%
same,% Inhibition Corn,Corn [4]; [8],25%
same,% Inhibition Corn,Corn [4]; [9],40%
O=C(C(Cl)Cl)N1CCc2ccccc2C1c1ccccc1 (centres unmarked) [compound 40],% Inhibition VELE,Velvetleaf (VELE) [1]; [7],85%
same,% Inhibition Corn,Corn [2]; [7],60%
same,% Inhibition GIFT,Giant foxtail (GIFT); [7],70%
same,% Inhibition SHCA,Shattercane (SHCA); [8],85%
same,% Inhibition SHCA,Shattercane (SHCA); [9],40%
same,% Inhibition VELE,Velvetleaf (VELE) [3]; [8],90%
same,% Inhibition VELE,Velvetleaf (VELE) [3]; [9],70%
same,% Inhibition Corn,Corn [4]; [8],45%
same,% Inhibition Corn,Corn [4]; [9],35%
CC(C)CC1c2ccccc2CCN1C(=O)C(Cl)Cl (centres unmarked) [compound 41],% Inhibition VELE,Velvetleaf (VELE) [1]; [7],80%
same,% Inhibition Corn,Corn [2]; [7],60%
same,% Inhibition GIFT,Giant foxtail (GIFT); [7],90%
same,% Inhibition SHCA,Shattercane (SHCA); [8],80%
same,% Inhibition SHCA,Shattercane (SHCA); [9],30%
same,% Inhibition VELE,Velvetleaf (VELE) [3]; [8],90%
same,% Inhibition VELE,Velvetleaf (VELE) [3]; [9],70%
same,% Inhibition Corn,Corn [4]; [8],25%
same,% Inhibition Corn,Corn [4]; [9],45%
